Measured values from patent US8569336B2, “Compounds for the treatment of inflammatory disorders” (priority 2008, dated 2013).
Like-named read-outs stand apart in the source and are kept apart here.

What was measured:
[1] = target: T1, purified catalytic domain of recombinant human TACE (rhTACEc) (Homo sapiens, UniProt P78536, N452Q/S266A); test: TACE kinetic assay: cleavage of internally quenched peptide substrate TNF-FRET 2 (Ki); assay type: biochemical; conditions: TNF-FRET 2 substrate
T1 construct: 6xHis (C); made in house; host or cells: baculovirus/Hi5 insect cells

[2] = tested on: TNF-α production from human whole blood; test: Inhibition of TNF-α production from human whole blood (hWBA), LPS stimulated, ELISA; assay type: cell-based; conditions: Homo sapiens, TNF-α by ELISA, read-out: hWBA (IC50)
[3] = 3.5 h, human whole blood diluted 1:1, LPS stimulated, 3.5 h
[4] = LPS-stimulated human whole blood

T1 sequence (P78536 215-477 S266A/N452Q): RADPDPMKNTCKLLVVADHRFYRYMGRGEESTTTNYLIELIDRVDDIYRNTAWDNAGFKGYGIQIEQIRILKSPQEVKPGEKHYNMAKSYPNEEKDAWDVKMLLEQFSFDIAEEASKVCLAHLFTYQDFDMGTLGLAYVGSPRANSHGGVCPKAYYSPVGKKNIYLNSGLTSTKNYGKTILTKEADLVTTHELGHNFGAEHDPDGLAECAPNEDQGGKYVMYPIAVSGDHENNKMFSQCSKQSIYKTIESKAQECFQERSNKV

| Ki ([1]; read-out: Ki) [nM] | IC50 [2, 3] [nM] | IC50 [2, 4] [nM] | Compound | Ki ([1]; Ki) [nM] |
| --- | --- | --- | --- | --- |
| 0.62 | 471 | – | COc1ccc2c(c1)C(=O)N(C[C@@]1(c3cc4cc(C(=O)N5CCC(N(C)C)CC5)c(F)cc4o3)NC(=O)NC1=O)C2 [Compound 1277] | – |
| 1.8 | 3260 | – | COc1ccc2c(c1)C(=O)N(C[C@@]1(c3cc4cc(C(=O)NCCN(C)CCNC(=O)OC(C)(C)C)c(F)cc4o3)NC(=O)NC1=O)C2 [Compound 1278] | – |
| 1 | 504 | – | COc1ccc2c(c1)C(=O)N(C[C@@]1(c3cc4cc(C(=O)NCCN(C)CCN)c(F)cc4o3)NC(=O)NC1=O)C2 [Compound 1279] | – |
| 0.83 | 1100 | – | COc1ccc2c(c1)C(=O)N(C[C@@]1(c3cc4cc(C(=O)NCCN(C)CCNS(C)(=O)=O)c(F)cc4o3)NC(=O)NC1=O)C2 [Compound 1281] | – |
| 0.48 | 407 | – | COC(=O)[C@H](CCCCNC(=O)c1cc2cc([C@]3(CN4Cc5ccc(OC)cc5C4=O)NC(=O)NC3=O)oc2cc1F)NC(=O)CCCC[C@@H]1SCC2NC(=O)NC21 (some centres unmarked) [Compound 1282] | – |
| 0.39 | 3300 | – | COc1ccc2c(c1)C(=O)N(C[C@@]1(c3cc4cc(C(=O)NCCCC[C@H](NC(=O)CCCC[C@@H]5SCC6NC(=O)NC65)C(=O)O)c(F)cc4o3)NC(=O)NC1=O)C2 (some centres unmarked) [Compound 1283] | – |
| 1.33 | 1400 | – | CN(C)C1CCN(c2ccc3oc(C4(CN5Cc6ccc(Cl)cc6C5=O)NC(=O)NC4=O)cc3n2)CC1 (centres unmarked) [Compound 1291] | – |
| 0.86 | 177 | – | CCN1C[C@@H]2C[C@H]1CN2c1ccc2oc([C@]3(CN4Cc5ccc(OC)c(F)c5C4=O)NC(=O)NC3=O)cc2n1 [Compound 1292] | – |
| 0.79 | 112 | – | CCN1CCN(c2ccc3oc([C@]4(CN5Cc6ccc(OC)c(F)c6C5=O)NC(=O)NC4=O)cc3n2)C[C@H]1C [Compound 1293] | – |
| 1.1 | 275 | – | CCN1CCN(c2ccc3oc([C@]4(CN5Cc6ccc(OC)c(F)c6C5=O)NC(=O)NC4=O)cc3n2)C[C@@H]1C [Compound 1294] | – |
| 7 | > 10000 | – | O=C1NC(=O)C(CN2Cc3ccccc3C2=O)(c2ccc(Br)cc2)N1 (centres unmarked) [Compound 1296] | – |
| 1.42 | – | 414 | COc1ccc2c(c1F)C(=O)N(C[C@@]1(c3cc4cc(C5(C)NC(=O)NC5=O)c(C)cc4o3)NC(=O)NC1=O)C2 (some centres unmarked) [Compound 1306] | – |
| 1.39 | – | 2950 | COc1ccc2c(c1)C(=O)N(C[C@@]1(c3cc4nc(-c5cc(O)cc(-c6ccncc6)c5)ccc4o3)NC(=O)NC1=O)C2 [Compound 1308] | – |
| 0.83 | – | 686 | COc1ccc2c(c1F)C(=O)N(C[C@@]1(c3cc4cc(F)c(C)nc4o3)NC(=O)NC1=O)C2 [Compound 1313] | – |
| 1.2 | – | 727 | COc1ccc2c(c1F)C(=O)N(C[C@@]1(c3cc4c(F)cnc(C)c4o3)NC(=O)NC1=O)C2 [Compound 1314] | – |
| 0.09 | – | 1120 | COc1ccc2c(c1F)C(=O)N(C[C@@]1(c3cc4nc(-c5cccnc5)c(F)cc4o3)NC(=O)NC1=O)C2 [Compound 1315] | – |
| 0.47 | – | 234 | COc1ccc2c(c1F)C(=O)N(C[C@@]1(c3cc4cc([C@]5(C)C(=O)NC(=O)N5C)c(F)cc4o3)NC(=O)NC1=O)C2 [Compound 1317] | – |
| 0.64 | – | 184 | CCN1CC=C(c2nc3cc([C@]4(CN5Cc6ccc(OC)c(F)c6C5=O)NC(=O)NC4=O)oc3cc2F)CC1 [Compound 1321] | – |
| 0.51 | – | 96 | CCCN1CC=C(c2nc3cc([C@]4(CN5Cc6ccc(OC)c(F)c6C5=O)NC(=O)NC4=O)oc3cc2F)CC1 [Compound 1322] | – |
| 0.08 | – | 140 | COc1ccc2c(c1F)C(=O)N(C[C@@]1(c3cc4nc(C5CCNCC5)c(F)cc4o3)NC(=O)NC1=O)C2 [Compound 1323] | – |

| Ki ([1]; read-out: Ki) [nM] | IC50 [2, 3] [nM] | IC50 [2, 4] [nM] | Compound | Ki ([1]; Ki) [nM] |
| --- | --- | --- | --- | --- |
| 1.1 | – | 333 | COCCN1CCN(c2ccc3oc([C@]4(CN5Cc6ccc(OC)cc6C5=O)NC(=O)NC4=O)cc3n2)CC1 [Compound 1500] | – |
| 2.4 | – | 7090 | COc1ccc2c(c1)C(=O)N(C[C@@]1(c3ccc(-c4cnc(N5CCCC5)nc4)cc3)NC(=O)NC1=O)C2 [Compound 1503] | – |
| 0.4 | – | 579 | COc1ccc2c(c1F)C(=O)N(C[C@@]1(c3cc4nc(-c5cccc(C#N)c5)ccc4o3)NC(=O)NC1=O)C2 [Compound 1504] | – |
| 0.6 | – | 1290 | COc1ccc2c(c1)C(=O)N(C[C@@]1(c3cc4nc(-c5cnc(N6CCCC6)nc5)ccc4o3)NC(=O)NC1=O)C2 [Compound 1505] | – |
| 0.7 | – | 4120 | COc1ccc2c(c1)C(=O)N(C[C@@]1(c3cc4nc(-c5ccc(F)c(C#N)c5)ccc4o3)NC(=O)NC1=O)C2 [Compound 1507] | – |
| 0.9 | – | 2430 | COc1ccc2c(c1)C(=O)N(C[C@@]1(c3cc4nc(C5CC5)ccc4o3)NC(=O)NC1=O)C2 [Compound 1508] | – |
| 0.5 | – | 2920 | COc1ccc2c(c1)C(=O)N(C[C@@]1(c3cc4nc(-c5cnc(OC)nc5OC)ccc4o3)NC(=O)NC1=O)C2 [Compound 1509] | – |
| 0.7 | – | 195 | COc1ccc2c(c1)C(=O)N(C[C@@]1(c3cc4nc(C(=O)O)ccc4o3)NC(=O)NC1=O)C2 [Compound 1514] | – |
| 0.5 | – | 260 | COc1ccc2c(c1F)C(=O)N(C[C@@]1(c3cc4nc(N5CCCC(C(N)=O)C5)ccc4o3)NC(=O)NC1=O)C2 (some centres unmarked) [Compound 1517] | – |
| 0.9 | – | 1510 | COc1ccc2c(c1)C(=O)N(C[C@@]1(c3cc4nc(-c5ccc(OC)nc5)ccc4o3)NC(=O)NC1=O)C2 [Compound 1518] | – |
| 0.4 | – | 142 | COc1ccc2c(c1)C(=O)N(C[C@@]1(c3cc4nc(-c5cnc(N)nc5)ccc4o3)NC(=O)NC1=O)C2 [Compound 1519] | – |
| 0.5 | – | 1190 | COc1ccc2c(c1)C(=O)N(C[C@@]1(c3cc4nc(-c5c(C)noc5C)ccc4o3)NC(=O)NC1=O)C2 [Compound 1520] | – |
| 0.3 | – | 169 | COc1ccc2c(c1F)C(=O)N(C[C@@]1(c3cc4nc(N5CC[C@@H](O)C5)ccc4o3)NC(=O)NC1=O)C2 [Compound 1521] | – |
| 3.2 | – | ≥ 100000 | COc1ccc2c(c1F)C(=O)N(C[C@]1(C3=CC(c4ccccc4)N(C)O3)NC(=O)NC1=O)C2 (some centres unmarked) [Compound 1525] | – |
| 2.5 | – | ≥ 100000 | COc1ccc2c(c1)C(=O)N(C[C@]1(C3=CC(c4ccccc4)N(C)O3)NC(=O)NC1=O)C2 (some centres unmarked) [Compound 1526] | – |
| 0.8 | – | 3660 | COc1ccc2c(c1)C(=O)N(C[C@@]1(c3cc4nc(-c5cncc(C#N)c5)ccc4o3)NC(=O)NC1=O)C2 [Compound 1529] | – |
| 0.65 | – | 125 | COc1ccc2c(c1)C(=O)N(C[C@@]1(c3cc4nc(N5C[C@@H](O)CC5=O)ccc4o3)NC(=O)NC1=O)C2 [Compound 1531] | – |
| 2.49 | – | 2210 | COc1ccc2c(c1)C(=O)N(C[C@@]1(c3cc4nc(N(CCO)Cc5ccccn5)ccc4o3)NC(=O)NC1=O)C2 [Compound 1701] | – |
| 3.96 | – | 1770 | COc1ccc2c(c1)C(=O)N(C[C@@]1(c3cc4nc(N(CCO)CCN(C)C)ccc4o3)NC(=O)NC1=O)C2 [Compound 1702] | – |

| Compound | Ki ([1]; read-out: Ki) [nM] | IC50 [2, 3] [nM] | IC50 [2, 4] [nM] | Ki ([1]; Ki) [nM] |
| --- | --- | --- | --- | --- |
| CCCN1CCC(c2nc3cc([C@]4(CN5Cc6ccc(OC)c(F)c6C5=O)NC(=O)NC4=O)oc3cc2F)CC1 [Compound 1324] | – | – | 248 | 0.58 |
